Measured values as given in paper PMC5834492, “Antimycobacterial drug discovery using Mycobacteria-infected amoebae identifies anti-infectives and new molecular targets” (Scientific Reports, 2018).
Entries after “also recorded” stand apart in the source; their conditions may differ.

Legend:
[1] = test system: M. bovis BCG pMV261 (empty plasmid); assay type: cell-based, Mycobacterium bovis BCG
[2] = test system: M. marinum GFP; assay type: cell-based, Mycobacterium marinum; settings: for M. marinum GFP normalised growth, control=1.00, mean: 10 µM, antibiotic assay; for antibiotic activity in M. marinum growth assay: broth
[3] = test system: M. marinum luxCDABE; assay type: cell-based, Mycobacterium marinum
[4] = test system: M. marinum in BV2 microglial cells; assay type: cell-based, Mycobacterium marinum
[5] = test system: D. discoideum GFP-ABD; settings: for D. discoideum GFP-ABD normalised growth, control=1.00, mean: 10 µM
[6] = test system: M. marinum in A. castellanii; assay type: cell-based, Mycobacterium marinum
[7] = test system: M. bovis BCG pMV261-murC; assay type: cell-based, Mycobacterium bovis BCG
[8] = test system: Mtb H37Rv; design: method as in Sorrentino et al, 2015; settings: ref Sorrentino et al, 2015; cited from earlier work
[9] = test system: Mtb H37Rv in THP-1; design: method as in Sorrentino et al, 2015; settings: ref Sorrentino et al, 2015, cited from earlier work; for Intracelullar MIC90 in THP-1: THP1 / Mtb H37Rv infection assay; for Extracellular MIC90/ Inracellular MIC90: ratio
[10] = test system: BV2 cells
[11] = test system: M. bovis BCG pMV261-fbpA; assay type: cell-based, Mycobacterium bovis BCG
[12] = not told; cited from earlier work

Compound | Extracellular MIC90 [8] [µM] | Intracelullar MIC90 in THP-1 [9] [µM] | Extracellular MIC90/ Inracellular MIC90 [9] | Antibiotic assays: M. marinum luxCDABE [3] | Intracellular infection assays: BV2 / M. marinum [4] | Growth inhibition / Cytotoxicity assays: D. discoideum GFP-ABD [5] | Intracellular infection assays: A. castellanii / M. marinum [6] | Growth inhibition / Cytotoxicity assays: BV2 cells [10] | further results
CC(C)OC(=O)COc1ccc(-c2cnc(N(C)CCc3ccncc3)nc2)cc1 [GSK831784A] | – | – | – | – | – | – | – | – | pXC50(1) [1]: 4.96; pXC50(2) [1]: 4.97; M. marinum GFP normalised growth, control=1.00, mean [2]: 0.10; antibiotic activity in M. marinum growth assay [2]: strong antibiotic activity; M. marinum luxCDABE normalised growth, control = 1.00, mean ([3]; 10 µM): 0,00; M. marinum luxCDABE normalised growth, control=1.00, mean ([3]; 10 µM): 0.00; IC50 [4]: 15 µM; BV2 / M. marinum normalised growth, control=1.00, mean ([4]; 10 µM): 0.97; hit in BV2/M. marinum assay True/False ([4]; 10 µM): FALSE; D. discoideum GFP-ABD normalised growth, control=1.00, mean [5]: 0.98; A. castellanii / M. marinum normalised growth, control=1.00, mean ([6]; 10 µM): 0.20; Hits A. castellanii/M. marinum assay True/False ([6]; 10 µM): TRUE; pIC50 Shift (1) [7]: 0.32; pIC50 Shift (2) [7]: 0.42; pXC50(1) [7]: 4.64; pXC50(2) [7]: 4.55
Cc1ccc2nc(C)c(-c3ccn(Cc4ccccc4)n3)n2c1 [GSK847920A] | 5 | 1.85 | 2.7 | – | – | – | – | – | pXC50(1) [1]: 5.94; pXC50(2) [1]: 5.99; M. marinum GFP normalised growth, control=1.00, mean [2]: 0.36; antibiotic activity in M. marinum growth assay [2]: strong antibiotic activity; M. marinum luxCDABE normalised growth, control=1.00, mean ([3]; 10 µM): 0.11; IC50 [4]: 3.29 µM; BV2 / M. marinum normalised growth, control=1.00, mean ([4]; 10 µM): 0.95; D. discoideum GFP-ABD normalised growth, control=1.00, mean [5]: 0.34; A. castellanii / M. marinum normalised growth, control=1.00, mean ([6]; 10 µM): 1.17; pIC50 Shift (1) [7]: 0.49; pIC50 Shift (2) [7]: 0.54; pXC50(1) [7]: 5.45; pXC50(2) [7]: 5.45
O=C(NCc1ccccc1F)N1CCN(Cc2ccc(Br)s2)CC1 [GSK1758774A] | 6.6 | 5.55 | 1.19 | 1.00 | 1.05 | 0.85 | 1.13 | False | –
COc1ccc(-c2ccc(Nc3cccc(S(=O)(=O)CCNCCc4cccs4)c3)nc2)cn1 [GSK1826089A] | 7.6 | 1.85 | 4.11 | 0.085 | 1.09 | 0.69 | 1.17 | False | –
COc1ccc(CC(=O)Nc2c(-c3cccs3)nc3cc(C)ccn23)cc1 [GSK1857145A] | 6.8 | 5.55 | 1.22 | 1.00 | 1.12 | 0.93 | 1.19 | False | –
Cc1ccc(SCCNC(=O)c2c(-c3ccccc3)noc2C)cc1 [GSK1863309A] | 7.8 | 16.65 | 0.47 | 0.00 | 1.12 | 0.97 | 1.09 | False | –
O=C(C1CCN(c2nnc(-n3cccc3)s2)CC1)N1CCC(Cc2ccccc2)CC1 [GSK2032710A] | 4.2 | 0.61 | 6.88 | 0.00 | 1.25 | 1.04 | 1.06 | False | –
CCc1ccc(CN2CCC3(CC2)OCCc2sccc23)s1 [GSK2200160A] | 1 | 0.21 | 4.76 | 0.35 | 1.09 | 0.03 | 0.77 | False | –
COc1cc(Cc2cnc(N)nc2N)c2cnccc2c1N(C)C [GW360240X] | 3 | 50 | 0.06 | 0.74 | 1.06 | 1.13 | 1.10 | False | –
CC(C)(C)c1ccc(-c2nnc(SCC(=O)OC3CCCCC3)o2)cc1 [GW859039X] | 1.7 | 5.55 | 0.31 | 0.075 | 1.04 | 0.68 | 0.90 | False | pXC50(1) [1]: 5.03; pXC50(2) [1]: 5.04; antibiotic activity in M. marinum growth assay [2]: strong antibiotic activity; pIC50 Shift (1) [11]: 0.43; pIC50 Shift (2) [11]: 0.42; pXC50(1) [11]: 4.6; pXC50(2) [11]: 4.62
O=C(C=Cc1ccccc1)N1CCN(Cc2ccc3c(c2)OCO3)CC1 [SB-516933] | 3.7 | 5.55 | 0.67 | 0.41 | 1.10 | 0.97 | 1.12 | False | –
O=C(c1[nH]nc2c1CCCC2)N1CCN(Cc2ccc3c(c2)OCO3)CC1 [SB-712970] | 4.5 | 5.55 | 0.81 | 0.00 | 1.28 | 0.79 | 1.13 | False | –
CCCCc1ccc(C(=O)Nc2nccc3ccccc23)nc1 [SB-746177] | 9.2 | 1.85 | 4.97 | 0.00 | 1.27 | 0.92 | 1.01 | False | –
NCC[C@H](O)C(=O)N[C@@H]1C[C@H](N)[C@@H](O[C@H]2O[C@H](CN)[C@@H](O)[C@H](O)[C@H]2O)[C@H](O)[C@H]1O[C@H]1O[C@H](CO)[C@@H](O)[C@H](N)[C@H]1O [amikacin, reference compound] | – | – | – | – | – | – | – | – | effect of amikacin on intracellular mycobacteria growth [4]: has an effect on mycobacteria growth inside BV2 cells; also recorded: exerts a significant effect on intracellular bacteria; cellular permeability [12]: low cellular permeability
